{"source": "patent US20100041089A1", "about": "“IMPROVED METHOD FOR DETECTING CHEMICAL […]” (priority 2006, published 2010)", "tested_on": "yeast genes (expressed mRNA)", "experiment": "DNA chip measurement of expressed mRNA of yeast genes after culture with a toxic chemical substance", "format": "cell-based, Saccharomyces cerevisiae S288C", "conditions": "for level of expressed mRNA in the presence of chemical substance / level in the absence of chemical substance: cultured two hours with the chemical substance; for The level of expressed mRNA in the presence of chemical substance/The level of expressed mRNA in the absence of chemical substance: cultured two hours with substance", "procedure,_shortened": "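S. cerevisiae S288C grown at 25 °C in YPD, exposed in log phase for 2 h to a toxicant at growth-inhibiting, non-lethal concentration. Cy3/Cy5-labelled cDNA from poly(A) mRNA hybridized to whole-genome chip at 65 °C >12 h. Ratio to untreated control, ≥2 significant.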"}
{"molecule": "[Cl][Pb][Cl]", "note": "[(4), PbCl2]", "values": [{"measurement": "level of expressed mRNA in the presence of chemical substance / level in the absence of chemical substance", "setting": "yeast gene YNL058C", "result": 1.7}, {"measurement": "level of expressed mRNA in the presence of chemical substance / level in the absence of chemical substance", "setting": "yeast gene YNL063W", "result": 1.4}, {"measurement": "The level of expressed mRNA in the presence of chemical substance/The level of expressed mRNA in the absence of chemical substance", "setting": "yeast gene YNL074C", "result": 1.2}, {"measurement": "The level of expressed mRNA in the presence of chemical substance/The level of expressed mRNA in the absence of chemical substance", "setting": "yeast gene YNL092W", "result": 1.8}, {"measurement": "The level of expressed mRNA in the presence of chemical substance/The level of expressed mRNA in the absence of chemical substance", "setting": "yeast gene YNL115C", "result": 1.4}, {"measurement": "The level of expressed mRNA in the presence of chemical substance/The level of expressed mRNA in the absence of chemical substance", "setting": "yeast gene YNL156C", "result": 1.3}, {"measurement": "level of expressed mRNA in the presence of chemical substance / level in the absence of chemical substance", "setting": "yeast gene YNL176C", "result": 1.0}, {"measurement": "level of expressed mRNA in the presence of chemical substance / level in the absence of chemical substance", "setting": "yeast gene YNL194C", "result": 15.2}, {"measurement": "level of expressed mRNA in the presence of chemical substance / level in the absence of chemical substance", "setting": "yeast gene YNL200C", "result": 2.0}, {"measurement": "The level of expressed mRNA in the presence of chemical substance/The level of expressed mRNA in the absence of chemical substance", "setting": "yeast gene YNL234W", "result": 1.8}, {"measurement": "level of expressed mRNA in the presence of chemical substance / level in the absence of chemical substance", "setting": "yeast gene YNL253W", "result": 1.0}, {"measurement": "level of expressed mRNA in the presence of chemical substance / level in the absence of chemical substance", "setting": "yeast gene YNL276C", "result": 0.3}, {"measurement": "The level of expressed mRNA in the presence of chemical substance/The level of expressed mRNA in the absence of chemical substance", "setting": "yeast gene YNL281W", "result": 1.4}, {"measurement": "The level of expressed mRNA in the presence of chemical substance/The level of expressed mRNA in the absence of chemical substance", "setting": "yeast gene YNL305C", "result": 1.4}, {"measurement": "level of expressed mRNA in the presence of chemical substance / level in the absence of chemical substance", "setting": "yeast gene YNR051C", "result": 0.6}, {"measurement": "The level of expressed mRNA in the presence of chemical substance/The level of expressed mRNA in the absence of chemical substance", "setting": "yeast gene YNR068C", "result": 2.6}, {"measurement": "level of expressed mRNA in the presence of chemical substance / level in the absence of chemical substance", "setting": "yeast gene YOL026C", "result": 1.4}, {"measurement": "The level of expressed mRNA in the presence of chemical substance/The level of expressed mRNA in the absence of chemical substance", "setting": "yeast gene YOL032W", "result": 1.3}, {"measurement": "The level of expressed mRNA in the presence of chemical substance/The level of expressed mRNA in the absence of chemical substance", "setting": "yeast gene YOL036W", "result": 0.8}, {"measurement": "The level of expressed mRNA in the presence of chemical substance/The level of expressed mRNA in the absence of chemical substance", "setting": "yeast gene YOL047C", "result": 2.5}, {"measurement": "The level of expressed mRNA in the presence of chemical substance/The level of expressed mRNA in the absence of chemical substance", "setting": "yeast gene YOL071W", "result": 2.0}, {"measurement": "The level of expressed mRNA in the presence of chemical substance/The level of expressed mRNA in the absence of chemical substance", "setting": "yeast gene YOL082W", "result": 2.1}, {"measurement": "The level of expressed mRNA in the presence of chemical substance/The level of expressed mRNA in the absence of chemical substance", "setting": "yeast gene YOL083W", "result": 2.8}, {"measurement": "The level of expressed mRNA in the presence of chemical substance/The level of expressed mRNA in the absence of chemical substance", "setting": "yeast gene YOL117W", "result": 1.4}, {"measurement": "The level of expressed mRNA in the presence of chemical substance/The level of expressed mRNA in the absence of chemical substance", "setting": "yeast gene YOL131W", "result": 1.0}, {"measurement": "The level of expressed mRNA in the presence of chemical substance/The level of expressed mRNA in the absence of chemical substance", "setting": "yeast gene YOL150C", "result": 0.9}, {"measurement": "The level of expressed mRNA in the presence of chemical substance/The level of expressed mRNA in the absence of chemical substance", "setting": "yeast gene YOL162W", "result": 1.4}, {"measurement": "The level of expressed mRNA in the presence of chemical substance/The level of expressed mRNA in the absence of chemical substance", "setting": "yeast gene YOR019W", "result": 4.7}, {"measurement": "level of expressed mRNA in the presence of chemical substance / level in the absence of chemical substance", "setting": "yeast gene YOR022C", "result": 1.2}, {"measurement": "level of expressed mRNA in the presence of chemical substance / level in the absence of chemical substance", "setting": "yeast gene YOR087W", "result": 1.3}, {"measurement": "level of expressed mRNA in the presence of chemical substance / level in the absence of chemical substance", "setting": "yeast gene YOR138C", "result": 0.8}, {"measurement": "The level of expressed mRNA in the presence of chemical substance/The level of expressed mRNA in the absence of chemical substance", "setting": "yeast gene YOR197W", "result": 1.4}, {"measurement": "level of expressed mRNA in the presence of chemical substance / level in the absence of chemical substance", "setting": "yeast gene YOR253W", "result": 1.4}, {"measurement": "level of expressed mRNA in the presence of chemical substance / level in the absence of chemical substance", "setting": "yeast gene YOR267C", "result": 0.9}, {"measurement": "level of expressed mRNA in the presence of chemical substance / level in the absence of chemical substance", "setting": "yeast gene YOR325W", "result": 0.3}, {"measurement": "level of expressed mRNA in the presence of chemical substance / level in the absence of chemical substance", "setting": "yeast gene YPL005W", "result": 1.0}, {"measurement": "The level of expressed mRNA in the presence of chemical substance/The level of expressed mRNA in the absence of chemical substance", "setting": "yeast gene YPL087W", "result": 7.3}, {"measurement": "level of expressed mRNA in the presence of chemical substance / level in the absence of chemical substance", "setting": "yeast gene YPL150W", "result": 0.9}, {"measurement": "level of expressed mRNA in the presence of chemical substance / level in the absence of chemical substance", "setting": "yeast gene YPL152W", "result": 1.8}, {"measurement": "level of expressed mRNA in the presence of chemical substance / level in the absence of chemical substance", "setting": "yeast gene YPL168W", "result": 1.4}, {"measurement": "level of expressed mRNA in the presence of chemical substance / level in the absence of chemical substance", "setting": "yeast gene YPL180W", "result": 0.6}, {"measurement": "level of expressed mRNA in the presence of chemical substance / level in the absence of chemical substance", "setting": "yeast gene YPL188W", "result": 1.0}, {"measurement": "The level of expressed mRNA in the presence of chemical substance/The level of expressed mRNA in the absence of chemical substance", "setting": "yeast gene YPL196W", "result": 1.7}, {"measurement": "The level of expressed mRNA in the presence of chemical substance/The level of expressed mRNA in the absence of chemical substance", "setting": "yeast gene YPL206C", "result": 1.9}, {"measurement": "level of expressed mRNA in the presence of chemical substance / level in the absence of chemical substance", "setting": "yeast gene YPL221W", "result": 1.8}, {"measurement": "The level of expressed mRNA in the presence of chemical substance/The level of expressed mRNA in the absence of chemical substance", "setting": "yeast gene YPL222W", "result": 1.3}, {"measurement": "level of expressed mRNA in the presence of chemical substance / level in the absence of chemical substance", "setting": "yeast gene YPL225W", "result": 1.6}, {"measurement": "The level of expressed mRNA in the presence of chemical substance/The level of expressed mRNA in the absence of chemical substance", "setting": "yeast gene YPR023C", "result": 0.8}, {"measurement": "level of expressed mRNA in the presence of chemical substance / level in the absence of chemical substance", "setting": "yeast gene YPR049C", "result": 1.0}, {"measurement": "level of expressed mRNA in the presence of chemical substance / level in the absence of chemical substance", "setting": "yeast gene YPR146C", "result": 0.9}, {"measurement": "level of expressed mRNA in the presence of chemical substance / level in the absence of chemical substance", "setting": "yeast gene YPR148C", "result": 1.3}, {"measurement": "The level of expressed mRNA in the presence of chemical substance/The level of expressed mRNA in the absence of chemical substance", "setting": "yeast gene YPR151C", "result": 4.1}, {"measurement": "level of expressed mRNA in the presence of chemical substance / level in the absence of chemical substance", "setting": "yeast gene YPR172W", "result": 1.2}]}
